Ten compounds from PMC9650711, “Hydroxyl-Rich Hydrophilic Endocytosis-Promoting Peptide with No Positive Charge” (Journal of the American Chemical Society, 2022) can be followed below.

Assay type in all cases: cell-based, human
Data set [1] has as its system RB-EPP6 uptake in U87 cells. Nature of the data set: Endocytosis inhibitors treatment, RB-EPP6 uptake by flow cytometry. The note with it: inhibitor 1 h, then 500 nM RB-EPP6 1 h; for inhibition of RB-EPP6 uptake: flow cytometry median intensity; for effect on RB-EPP6 uptake (cholesterol extraction / binding): flow cytometry. The procedure:
(§1) Flow cytometry experiments
(§2) To perform flow cytometry experiments, a NovoCyte flow cytometer (NovoExpress) was used.
(§3) Quantification of fluorescence intensity was achieved using the Novoxpress software. Fifty thousand cells were analyzed for each condition. A green fluorescent dye used for DNA staining, YOYO, was included in all the flow cytometry experiments, serving as a cell live/dead indicator.
For the YOYO-only group, the cells were treated with trypsin for 5-10 min and subsequently fixed in a 1.5 mL centrifuge tube using 4% paraformaldehyde at room temperature for 15 min. Then, fixed cells were washed with PBS once and were permeabilized using 90% MeOH on ice for 15 min. For all conditions, cells were incubated with YOYO in a phenol-free medium for half an hour, and then were centrifuged to remove the YOYO solution and resuspended in a fresh phenol-free medium before performing flow cytometry.
For general incubation, 300 k U87 cells were seeded in a 35×10 mm culture dish and incubated overnight under normal culturing conditions. Stock solutions of Dye-EPPs were made in DMSO to reach a concentration of 500 μM. Fresh cell culture medium was used to dilute the stock solution to 500 nM. Cells were incubated with RB-EPPs for desired time periods, followed by a one-time wash with phenol-free fresh culture medium before measurements. […]
(§4) Endocytosis inhibitors treatment
U87 cells were incubated with different endocytosis inhibitors for 1 h. Then, the media was replaced with fresh media containing 500 nM of RB-EPP6. After 1 h, a trypsin-EDTA solution (0.05%, Sigma) was added to detach the cells. The cells were collected by centrifugation and resuspended in phenol-free media. […]
Stock solutions of trackers for mitochondria, lysosome, and ER were diluted with cell culture medium into 100 nM, 500 nM, and 4 μM, respectively. RB-EPP6 was added to each working solution at 500 nM. U87 cells were incubated with the trackers and RB-EPP6 for 1 h and then washed once before confocal imaging.

Data set [2] has as its system RB-EPP6 uptake in U87 cells. Briefly: FIBCD1 competition assay with CSA, RB-EPP6 uptake by flow cytometry. The note with it: 500 nM RB-EPP6 together with CSA, 1 h. The protocol:
experiment. Poly-A selective RNA-seq libraries were prepared using the NEB NextUltra II kit (New England Biolabs) and sequenced on an Illumina NextSeq500 with 2×75 pair-end reads. The obtained sequencing data was preprocessed using fastp, aligned using STAR, and counted using featureCounts. Differentially expressed genes were identified using DESeq2. The sequence data and analysis reports are deposited in the GEO repository (Accession # GSE202764) […]
U87 cells were incubated with 500 nM RB-EPP6 and YOYO, together with chondroitin sulfate (CSA) in complete media. After 1 h, trypsin was used to detach the cells. Cell pellets were collected by centrifugation. Fresh phenol-free medium was added to each condition. […]
Human FIBCD1 cDNA with an MYC-DDK tag was ordered from Origene (#RC206180) and was expressed using the mammalian expression system kit ExpiCHOTM (#A29133) as generally described by MAN0014337. […] The obtained full-length FIBCD1 was quantified using BCA.
Fluorescence polarization (FP) assay
Solutions of RB-EPPs (in 1% BSA/PBST) were added to different concentrations of full-length FIBCD1 (in 1% BSA/PBST). […] The solutions were incubated at room temperature for 30 minutes on an orbital shaker, and the fluorescence polarization values were quantified using a BioTek Synergy H1 plate reader, with an FP filter set (excitation 530/25, emission 590/35). […]
For orientation: Flow cytometry measures light scatter and fluorescence of single cells or particles in a stream.

The subject of data set [3] is U87 cells. Briefly: Resazurin assay, cell viability. The protocol:
Time-dependent uptake experiment
U87 cells were incubated with RB-EPP6 at 500 nM for 1 h. After washing with fresh medium once, the cells were kept in the 5% CO2 incubator at 37 °C for desired time durations before […]
Temperature-dependent uptake experiment
U87 cells were kept in a 4 °C cold room for half an hour. After that, cells were incubated with RB-EPP 6 at 500 nM at 4 °C. Cells in the control group were maintained and incubated at 37 °C. After 1 h, cells were washed with fresh medium once before confocal imaging.
All the RB-EPPs were diluted in PBS to 100 μM. 700 μL of the testing peptides were added to the apical chamber of a Corning BioCoat Pre-coated PAMPA Plate. 200 μL PBS was added to the basolateral chamber. The plate was kept at 37 °C with 5% CO2 for 5 h, after which 80 μL samples were collected from each chamber for RB fluorescence intensity reading using the Synergy H1 […]
as §4
U87 cells were incubated with different endocytosis inhibitors for 1 h. Then, the media was replaced with fresh media containing 500 nM of RB-EPP6. After 1 h, a trypsin-EDTA solution (0.05%, Sigma) was added to detach the cells. […]
Resazurin was dissolved in DI water at a stock concentration of 6 mg/mL. […] The fluorescence intensity of the samples was recorded by a plate reader at 532 nm excitation and 585 nm emission wavelengths. […]
For orientation: Resazurin is reduced to fluorescent resorufin, in cell work by metabolically active cells.

Data set [4] relates to RB-EPP6 uptake in U87 cells. Briefly: Heparin-binding assay, RB-EPP6 uptake by flow cytometry. The note with it: heparin sulfate 10-200 μg/mL 30 min, then with 500 nM RB-EPP6 1 h.
For data set [5], the system named is U87 cells. Briefly: Uptake and nuclear accumulation of TO- and EB-labeled EPPs, confocal. The settings on record: confocal imaging, TO conjugates 500 nM, EB-EPP6 2 ug/mL or 6 hr. The protocol: Confocal imaging experiments
To image the cells, a Zeiss 880 inverted confocal laser scanning microscope (Carl Zeiss, Germany) was used. Image acquisition and analyses were carried out using the manufacturer’s software (ZEN, Carl Zeiss). Quantification of fluorescence intensity in single cells was performed using Fiji […]
as §1, §2, §3
For the YOYO-only group, the cells were treated with trypsin for 5-10 min and subsequently fixed in a 1.5 mL centrifuge tube using 4% paraformaldehyde at room temperature for 15 min. Then, fixed cells were washed with PBS once and were permeabilized using 90% MeOH on ice for 15 min. For all conditions, cells were incubated with YOYO in a phenol-free medium for half an hour, and then were centrifuged to remove the YOYO solution and resuspended in a fresh phenol-free medium before performing flow cytometry. […]
2 μL of RB-EPP (in DMSO) was added to the solution at a concentration of 500 μM. […] Samples were collected from both phases and quantified by Analytical HPLC separately. […]

Regarding `O=C(N/N=C/c1ccc(O)c(O)c1)c1cc2ccccc2cc1O` [Dynasore], the “inhibition of RB-EPP6 uptake” value in data set [1] came to 86%.
In the case of methyl-β-cyclodextrin, in data set [1], the “effect on RB-EPP6 uptake (cholesterol extraction / binding)” value is reported as “did not inhibit”.
As to chondroitin sulfate A [CSA], the “effect on RB-EPP6 uptake (competitive uptake)” value in data set [2] is given as “inhibit RB-EPP6 uptake in a concentration-dependent manner”. The “effect on cell viability” value in the data set on U87 cells [3] is recorded as “without affecting cell viability”.
Turning to `C=C1[C@@H](C)[C@H]2[C@H](Cc3ccccc3)NC(=O)[C@]23[C@H](OC(C)=O)/C=C/[C@@](C)(O)C(=O)[C@@H](C)C/C=C/[C@H]3[C@@H]1O` [cytochalasin D], in data set [1], the “inhibition of RB-EPP6 uptake” value was 38%.
Take heparin sulfate: the “effect on RB-EPP6 uptake” value in data set [4] is listed as “did not affect”.
Consider `CCCCC[C@@H](O)[C@H]1C(=O)O[C@H](C)[C@@H](O)/C=C/C=C/C=C/C=C/C=C(\C)[C@@H](O)C[C@H](O)C[C@H](O)C[C@H](O)C[C@H](O)C[C@H](O)C[C@@H]1O` [filipin], for which, in data set [1], the “effect on RB-EPP6 uptake (cholesterol extraction / binding)” value is reported as “did not inhibit”.
Consider `COC[C@H]1OC(=O)c2coc3c2[C@@]1(C)C1=C(C3=O)[C@@H]2CCC(=O)[C@@]2(C)C[C@H]1OC(C)=O` [wortmannin], for which, in data set [1], the “inhibition of RB-EPP6 uptake” value is listed as 48%.
As to `O=C1NC(=NS(=O)(=O)c2cccc3ccccc23)S/C1=C\c1ccc(Br)cc1` [Pitstop 2], the “inhibition of RB-EPP6 uptake” value in data set [1] worked out at 9%.
With `CC[n+]1c(-c2ccccc2)c2cc(N)ccc2c2ccc(N)cc21` [EB, ethidium bromide], the “uptake / intracellular localisation” value with U87 cells [5] is “did not show any uptake”.
As for `c1ccc2c(c1)Nc1ccccc1S2` [phenothiazine], the “inhibition of RB-EPP6 uptake” value in data set [1] is reported as “no inhibition”.
